Laboratory results from US20150065440A1 (Progen Pharmaceuticals Limited, priority 2007, published 2015).

Tests used:
HSV-2 [1] = assay: Anti-HSV screening assay (viral plaques), HSV-2; assay type: cell-based; details: 100 μg/mL, viral plaques relative to mock treated controls
Protocol: (§1) African green monkey kidney (GMK AH1) cells^46 were cultured in Eagle's minimum essential medium (EMEM) supplemented with 2% calf serum, 0.05% Primaton RL substance (Kraft Inc., Norwich, USA) and antibiotics. Human epidermoid carcinoma (HEp-2) cells were cultured in Dulbecco's modified EMEM (DMEM) supplemented with 10% fetal calf serum and antibiotics. […] The RSV strain A-2^50 was used. The RSV stock was prepared as described by Hallak et al.^51 and stored at −70° C. in the presence of 40% sucrose^52.
(§2) The viral infectivity (the plaque number-reduction) assay and the plaque size-reduction assay were carried out as described previously^17. […] Subsequently, the cells were washed with 2 mL of EMEM and overlaid with 1% methylcellulose solution in EMEM. The plaques were visualized by staining with crystal violet solution after 2 (HSV-2) or 3 (HSV-1) days of incubation at 37° C. […] When the compounds were screened for anti-HSV or anti-RSV activity, mixtures of 200 PFU of the virus and the test compound (100 μg/mL) in serum-free EMEM were incubated for 10 min at room temperature before addition to cells and during the entire period of viral infection of cells and the development of viral plaques. In the plaque size-reduction assay, the compounds were added to cells (in methylcellulose overlay medium) after 2 h period of virus infection of cells in the absence of the inhibitor. After 2-3 days of incubation at 37° C., the viral plaques were visualized by staining the cells with 1% solution of crystal violet. For each compound tested, the images of twenty neighboring plaques were captured using a Leica DC300 digital camera attached to a Leitz-Wetzlar Diavert microscope. The area of each plaque was determined using IM500 image software (Leica). Similar protocols were used for RSV, except that the assays were performed in HEp-2 cells and DMEM supplemented with 2% heat-inactivated fetal calf serum was used instead of EMEM.

RSV = assay: Anti-RSV screening assay (viral plaques); assay type: cell-based; details: 100 μg/mL, viral plaques relative to mock treated controls
Protocol: as §1, §2

GMK AH1 cells = assay: Cytotoxicity assay, GMK AH1; assay type: cell-based, African green monkey; details: cell viability reduced by 50%
Protocol: The assay was performed in GMK AH1 cells that had been seeded in 96 well cluster plates and reached approximately 80-90% confluence at day 2 of culture. The cells were washed with EMEM and incubated for 24 h at 37° C. with 100 μL of serial two-fold dilutions of the test compound in serum-free EMEM. The effect of the test compound on cell viability was measured by using the tetrazolium-based CellTiter96 assay according to the manufacturer's protocol (Promega, Madison, Wis., USA).

HEp-2 cells = assay: Cytotoxicity assay, HEp-2; assay type: cell-based, Human; details: cell viability reduced by 50%
HSV-1 = assay: Virus inactivation assay, HSV-1; assay type: cell-based; details: 15 min at 37° C.
Protocol: (§3) Approximately 10^5 plaque-forming units of HSV-1 KOS321 or HSV-2 333 stain and specific concentrations of the test compound in 200 μL of serum-free EMEM were mixed and incubated at 37° C. for 15 min. The mixtures were diluted to the non-inhibitory concentrations of the test compound, and then subjected to the infectious titer determination as described under the viral plaque number-reduction assay. In case of RSV, the assay was carried out in similar manner using DMEM supplemented with 2% heat-inactivated fetal calf serum instead of EMEM. To evaluate the effect of a low pH value or the presence of cervical secretions; the virus (HSV-2 333) and compounds were diluted in a low pH buffer (4.5) or cervical secretions were added to the compound dilutions before mixing with the virus (HSV-2 333). The cervical secretions were prepared from cervical swabs generated from 3 different individuals. The swabs were rinsed with distilled water and centrifuged at 5000×g for 10 min. The supernatant was kept at −20° C. In the case of RSV, the assay was carried out in a similar manner using DMEM supplemented with 2% heat-inactivated fetal calf serum instead of EMEM.

HSV-2 [2] = assay: Virus inactivation assay, HSV-2; assay type: cell-based; details: for Virus-inactivating activity: viral plaques with compound-treated virus relative to mock-treated controls: 15 min at 37° C.
Protocol: as §3

rat aortic tissue = assay: Ex vivo angiogenic sprout assay (rat aortic angiogenesis assay); assay type: cell-based, Sprague Dawley rats
Protocol: Explants from rat aortas were prepared by a modification of protocols previously described^42-54. In this model, the rat aortic endothelium exposed to a three dimensional matrix of ECM-derived proteins (Matrigel™), switches to a microvascular phenotype, generating branching networks of microvessels.
Briefly, thoracic aortas were excised from 2- to 4-month old Sprague Dawley rats and trimmed of remaining fat and connective tissue. Great care was taken at every stage to reduce physical damage of the aorta. Tissue was transferred to complete EBM-2 media (Cambrex) containing 2% FCS and all Singlequots™ (Cambrex) reagents except for heparin. Meanwhile, Matrigel™ (BD Biosciences) was allowed to cool on ice and once in a liquid form, 180 μL was pipetted into 48-well tissue culture plates (Nunc). The plates were incubated at 37° C. for 30 min to allow Matrigel™ to solidify.
Aortas were prepared by cutting 1 mm ring sections and then being bisected. Aortic segments were then carefully placed on top on the Matrigel™ in the centre of each well and once orientated as required, 60 μL of extra Matrigel™ was placed on top and the plate was returned to the incubator for a further 20 min. Each well was then supplemented with 1.0 mL media in the absence (control) or presence of test compounds usually at two concentrations within the range of 1-50 μM, depending on the particular compound/experiment. Cultures were replenished as appropriate every 48 h and scoring of microvessels was carried out at various timepoints up to 8-10 days. The extent of microvessel sprouting was determined by employing a scoring system from 0-5, where 0=no microvessels to 5=diffuse angiogenesis as previously described^45. Sprouting vessels were photographed using the 4× objective with an Olympus C-7070 camera and an adaptor for the eyepiece.
In some instances, to determine the potential toxicity of compounds in this assay, the viability of the tissue was assessed by withdrawing the compound/media from the culture on day 6 or 7 and adding complete media with VEGF (typically 10 ng/mL) for up to an additional 7 days. In the absence of toxicity, the viable tissue should sprout microvessels in response to the exogenous growth factor.
The inhibitory effect of compounds of the present invention on angiogenesis was assayed using the angiogenic sprout/microvessel formation (rat aortic) assay described above. Embedding of the rat aortic tissue in Matrigel™ in the absence of any inhibitor (control) yielded extensive angiogenic sprouting (as a score of 5 indicates diffuse angiogenesis) as illustrated by FIG. 1.

Row | Compound | Residual infectivity (%) HSV-2 (HSV-2 [1]) [%] | Residual infectivity (%) RSV (RSV) [%] | Cytotoxicity CC50 GMK AH1 (GMK AH1 cells) [µg/mL] | Cytotoxicity CC50 HEp-2 (HEp-2 cells) [µg/mL] | Virus-inactivating activity: viral plaques with compound-treated virus relative to mock-treated controls (HSV-1; HSV-1, 1 μg/ml) [%] | Virus-inactivating activity: viral plaques with compound-treated virus relative to mock-treated controls (HSV-1; HSV-1, 10 μg/ml) [%] | Virus-inactivating activity: viral plaques with compound-treated virus relative to mock-treated controls (HSV-1; HSV-1, 100 μg/ml) [%] | Virus-inactivating activity: viral plaques with compound-treated virus relative to mock-treated controls (HSV-2 [2]; HSV-2, 1 μg/ml) [%] | Virus-inactivating activity: viral plaques with compound-treated virus relative to mock-treated controls (HSV-2 [2]; HSV-2, 10 μg/ml) [%] | Virus-inactivating activity: viral plaques with compound-treated virus relative to mock-treated controls (HSV-2 [2]; HSV-2, 100 μg/ml) [%] | Virus-inactivating activity in the presence of human cervical secretions: viral plaques relative to mock-treated controls (HSV-2 [2]; HSV-2, cervical secretions diluted 1:2.2, 1 μg/ml) [%] | Virus-inactivating activity in the presence of human cervical secretions: viral plaques relative to mock-treated controls (HSV-2 [2]; HSV-2, cervical secretions diluted 1:2.2, 10 μg/ml) [%] | Virus-inactivating activity in the presence of human cervical secretions: viral plaques relative to mock-treated controls (HSV-2 [2]; HSV-2, cervical secretions diluted 1:2.2, 100 μg/ml) [%] | Virus-inactivating activity at low pH: viral plaques relative to mock-treated controls (HSV-2 [2]; HSV-2, pH 4.5, 1 μg/ml) [%] | Virus-inactivating activity at low pH: viral plaques relative to mock-treated controls (HSV-2 [2]; HSV-2, pH 4.5, 10 μg/ml) [%] | Virus-inactivating activity at low pH: viral plaques relative to mock-treated controls (HSV-2 [2]; HSV-2, pH 4.5, 100 μg/ml) [%] | % Inhibition of Angiogenesis (10 μM) (rat aortic tissue; 10 μM) [%] | inhibition at 10 µM (rat aortic tissue; Rattus norvegicus) [%]
1 | CCCCCCCCCCCCOC1OC(COS(=O)(=O)O)C(OS(=O)(=O)O)C(OS(=O)(=O)O)C1OC1OC(COS(=O)(=O)O)C(OS(=O)(=O)O)C(OC2OC(COS(=O)(=O)O)C(OS(=O)(=O)O)C(OC3OC(COS(=O)(=O)O)C(OS(=O)(=O)O)C(OC4OC(COS(=O)(=O)O)C(OS(=O)(=O)O)C(OS(=O)(=O)O)C4OS(=O)(=O)O)C3OS(=O)(=O)O)C2OS(=O)(=O)O)C1OS(=O)(=O)O [Compound 4, Dodecyl 2,3,4,6-tetra-O-sodium sulfonato-α-D-mannopyranosyl-(1→3)-2,4,6-tri-O-sodium sulfonato-α-D-mannopyranosyl-(1→3)-2,4,6-tri-O-sodium sulfonato-α-D-mannopyranosyl-(1→3)-2,4,6-tri-O-sodium sulfonato-α-D-mannopyranosyl-(1→2)-3,4,6-tri-O-sodium sulfonato-α-D-mannopyranoside] | 0.7 | 0 | >400 | >400 | 83.9 | 79.4 | 83.8 | 98.6 | 97.5 | 68.1 |  |  |  |  |  |  |  | 
2 | CC(C)CCCC(C)C1CCC2C3CCC4CC(OC5OC(COS(=O)(=O)O)C(OS(=O)(=O)O)C(OS(=O)(=O)O)C5OC5OC(COS(=O)(=O)O)C(OS(=O)(=O)O)C(OC6OC(COS(=O)(=O)O)C(OS(=O)(=O)O)C(OC7OC(COS(=O)(=O)O)C(OS(=O)(=O)O)C(OS(=O)(=O)O)C7OS(=O)(=O)O)C6OS(=O)(=O)O)C5OS(=O)(=O)O)CCC4(C)C3CCC12C [Compound 20, 3β-Cholestanyl 2,3,4,6-tetra-O-sodium sulfonato-α-D-mannopyranosyl-(1→3)-2,4,6-tri-O-sodium sulfonato-α-D-mannopyranosyl-(1→3)-2,4,6-tri-O-sodium sulfonato-α-D-mannopyranosyl-(1→2)-3,4,6-tri-O-sodium sulfonato-α-D-mannopyranoside] | 0 | 0 | 110 | 113 | 88.6 | 0 | 0 | 120.3 | 0.3 | 0 | 82.6 | 78.5 | 0.3 | 93.7 | 6.8 | 0.0 |  | 
3 | CC(C)CCC[C@@H](C)[C@H]1CC[C@H]2[C@@H]3CCC4CC(OCc5cn([C@@H]6O[C@H](COS(=O)(=O)[O-])[C@@H](O[C@H]7O[C@H](COS(=O)(=O)[O-])[C@@H](O[C@H]8O[C@H](COS(=O)(=O)[O-])[C@@H](OS(=O)(=O)[O-])[C@H](OS(=O)(=O)[O-])[C@H]8OS(=O)(=O)[O-])[C@H](OS(=O)(=O)[O-])[C@H]7OS(=O)(=O)[O-])[C@H](OS(=O)(=O)[O-])[C@H]6OS(=O)(=O)[O-])nn5)CC[C@]4(C)[C@H]3CC[C@]12C.[Na+].[Na+].[Na+].[Na+].[Na+].[Na+].[Na+].[Na+].[Na+].[Na+] (stereo partly drawn) [Compound 70, 4-(Cholestan-3-yl-oxymethyl)[1,2,3]triazol-1-yl 2,3,4,6-tetra-O-sodium sulfonato-α-D-glucopyranosyl-(1→4)-2,3,6-tri-O-sodium sulfonato-α-D-glucopyranosyl-(1→4)-1-deoxy-2,3,6-tri-O-sodium sulfonato-β-D-glucopyranoside] |  |  |  |  |  |  |  |  |  |  |  |  |  |  |  |  | 97 | 
4 | CCCCCCCCCCCCCCCCCC(=O)NCCCO[C@@H]1O[C@H](COS(=O)(=O)[O-])[C@@H](O[C@H]2O[C@H](COS(=O)(=O)[O-])[C@@H](O[C@H]3O[C@H](COS(=O)(=O)[O-])[C@@H](O[C@H]4O[C@H](COS(=O)(=O)[O-])[C@@H](OS(=O)(=O)[O-])[C@H](OS(=O)(=O)[O-])[C@H]4OS(=O)(=O)[O-])[C@H](OS(=O)(=O)[O-])[C@H]3OS(=O)(=O)[O-])[C@H](OS(=O)(=O)[O-])[C@H]2OS(=O)(=O)[O-])[C@H](OS(=O)(=O)[O-])[C@H]1OS(=O)(=O)[O-].[Na+].[Na+].[Na+].[Na+].[Na+].[Na+].[Na+].[Na+].[Na+].[Na+].[Na+].[Na+].[Na+] [Compound 128, 3-Stearamidopropyl 2,3,4,6-tetra-O-sulfo-α-D-glucopyranosyl-(1→4)-2,3,6-tri-O-sulfo-α-D-glucopyranosyl-(1→4)-2,3,6-tri-O-sulfo-α-D-glucopyranosyl-(1→4)-2,3,6-tri-O-sulfo-β-D-glucopyranoside, tridecasodium salt] |  |  |  |  |  |  |  |  |  |  |  |  |  |  |  |  |  | 65
